Source: ChEMBL document CHEMBL1201862, “PubChem BioAssay data set” (2004)
The source made the active and inactive calls.

Assays:
[1] = molecular target: T1, High affinity choline transporter 1 (Homo sapiens, UniProt Q9GZV3); assay: CHT inhibitors, dose response, cell-based, 5-point CRC, membrane potential dye (AID 504840); assay type: functional
T1 sequence (Q9GZV3 whole entry): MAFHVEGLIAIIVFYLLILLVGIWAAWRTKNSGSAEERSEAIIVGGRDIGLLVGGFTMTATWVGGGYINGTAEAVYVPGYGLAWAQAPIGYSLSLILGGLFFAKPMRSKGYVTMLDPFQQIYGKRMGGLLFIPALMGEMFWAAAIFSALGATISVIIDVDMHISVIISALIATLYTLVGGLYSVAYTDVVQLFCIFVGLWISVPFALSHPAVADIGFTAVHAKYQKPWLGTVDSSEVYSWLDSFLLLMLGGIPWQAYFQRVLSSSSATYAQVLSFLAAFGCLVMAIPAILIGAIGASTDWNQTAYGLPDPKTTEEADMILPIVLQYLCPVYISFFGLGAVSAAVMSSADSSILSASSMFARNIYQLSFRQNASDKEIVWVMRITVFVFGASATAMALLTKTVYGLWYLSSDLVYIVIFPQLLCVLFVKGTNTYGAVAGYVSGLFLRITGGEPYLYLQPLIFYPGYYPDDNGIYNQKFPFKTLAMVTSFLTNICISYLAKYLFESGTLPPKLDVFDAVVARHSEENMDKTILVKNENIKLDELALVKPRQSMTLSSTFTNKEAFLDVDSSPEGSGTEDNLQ

Aminopeptidase N = molecular target: T2, Aminopeptidase N (Plasmodium falciparum FcB1/Columbia, UniProt O96935); assay: P. falciparum M1AAP inhibitors, biochemical, fluorogenic H-Leu-NHMec substrate, 1536-well (AID 1445); design: species or system Plasmodium falciparum 3D7, 3D7
T2 sequence (O96935 whole entry): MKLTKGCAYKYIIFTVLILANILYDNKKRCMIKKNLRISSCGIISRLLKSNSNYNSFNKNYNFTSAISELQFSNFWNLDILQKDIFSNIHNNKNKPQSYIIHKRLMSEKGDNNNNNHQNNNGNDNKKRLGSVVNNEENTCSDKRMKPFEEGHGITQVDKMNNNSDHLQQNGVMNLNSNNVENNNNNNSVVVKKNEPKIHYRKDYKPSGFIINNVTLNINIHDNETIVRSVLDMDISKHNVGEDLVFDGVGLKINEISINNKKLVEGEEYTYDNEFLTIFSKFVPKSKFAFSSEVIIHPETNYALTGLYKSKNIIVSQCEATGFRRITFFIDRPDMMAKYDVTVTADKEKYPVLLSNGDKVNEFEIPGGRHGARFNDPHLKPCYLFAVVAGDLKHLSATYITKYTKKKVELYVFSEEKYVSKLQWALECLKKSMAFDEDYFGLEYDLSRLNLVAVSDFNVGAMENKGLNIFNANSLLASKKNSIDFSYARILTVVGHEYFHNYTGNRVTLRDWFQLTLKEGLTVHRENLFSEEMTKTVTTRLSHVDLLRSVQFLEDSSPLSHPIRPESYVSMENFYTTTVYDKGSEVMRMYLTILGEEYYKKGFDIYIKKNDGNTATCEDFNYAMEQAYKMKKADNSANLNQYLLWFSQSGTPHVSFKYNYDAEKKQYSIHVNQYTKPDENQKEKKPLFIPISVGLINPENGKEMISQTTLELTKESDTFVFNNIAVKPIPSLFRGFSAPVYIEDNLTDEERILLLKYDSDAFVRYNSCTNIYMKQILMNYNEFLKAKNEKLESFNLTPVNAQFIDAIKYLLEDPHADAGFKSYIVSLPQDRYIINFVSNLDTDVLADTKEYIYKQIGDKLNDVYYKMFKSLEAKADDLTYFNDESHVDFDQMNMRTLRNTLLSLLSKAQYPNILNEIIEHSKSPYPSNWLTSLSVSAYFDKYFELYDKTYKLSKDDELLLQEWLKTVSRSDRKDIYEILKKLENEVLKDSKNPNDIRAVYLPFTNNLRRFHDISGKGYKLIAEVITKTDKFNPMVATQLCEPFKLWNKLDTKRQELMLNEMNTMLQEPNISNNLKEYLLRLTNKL

[2] = microbe, parasite or virus in culture; assay type: functional; settings: Mycobacterium tuberculosis
Cytochrome P450 2C9 = Cytochrome P450 2C9 (Homo sapiens, UniProt P11712)
Chain of Cytochrome P450 2C9 (P11712 whole entry): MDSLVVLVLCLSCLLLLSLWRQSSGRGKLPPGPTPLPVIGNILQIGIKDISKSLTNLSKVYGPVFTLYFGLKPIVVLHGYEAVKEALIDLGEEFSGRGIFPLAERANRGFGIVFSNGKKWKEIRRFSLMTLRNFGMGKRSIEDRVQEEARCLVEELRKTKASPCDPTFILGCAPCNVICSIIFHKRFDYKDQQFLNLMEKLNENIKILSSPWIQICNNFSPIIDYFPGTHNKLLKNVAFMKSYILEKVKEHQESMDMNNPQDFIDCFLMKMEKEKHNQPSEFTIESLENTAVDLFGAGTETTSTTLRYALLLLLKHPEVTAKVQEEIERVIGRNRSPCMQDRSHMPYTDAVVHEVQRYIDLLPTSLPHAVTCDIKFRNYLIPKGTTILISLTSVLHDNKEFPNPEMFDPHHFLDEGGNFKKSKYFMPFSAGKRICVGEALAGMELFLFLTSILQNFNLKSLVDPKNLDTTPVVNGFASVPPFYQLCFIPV

[3] = HEp-2 cell cytotoxicity, dose response, cytotoxicity control for RSV inhibitor project, HTS (AID 2410); assay type: functional; settings: human respiratory syncytial virus
[4] = Luminescence Cell-Based Dose Retest to Confirm Inhibitors of Cancer Stem Cells. [Related pubchem assays (depositor defined):AID2717, AID2721]; assay type: functional, Homo sapiens; settings: Homo sapiens
Cytochrome P450 2C19 = Cytochrome P450 2C19 (Homo sapiens, UniProt P33261); assay: Cytochrome panel assay with activity outcomes. Panel member name: p450-cyp2c19 Compounds with AC50 equal or less than 10 uM are considered active; assay type: functional; settings: read-out: AC50
Chain of Cytochrome P450 2C19 (P33261 whole entry): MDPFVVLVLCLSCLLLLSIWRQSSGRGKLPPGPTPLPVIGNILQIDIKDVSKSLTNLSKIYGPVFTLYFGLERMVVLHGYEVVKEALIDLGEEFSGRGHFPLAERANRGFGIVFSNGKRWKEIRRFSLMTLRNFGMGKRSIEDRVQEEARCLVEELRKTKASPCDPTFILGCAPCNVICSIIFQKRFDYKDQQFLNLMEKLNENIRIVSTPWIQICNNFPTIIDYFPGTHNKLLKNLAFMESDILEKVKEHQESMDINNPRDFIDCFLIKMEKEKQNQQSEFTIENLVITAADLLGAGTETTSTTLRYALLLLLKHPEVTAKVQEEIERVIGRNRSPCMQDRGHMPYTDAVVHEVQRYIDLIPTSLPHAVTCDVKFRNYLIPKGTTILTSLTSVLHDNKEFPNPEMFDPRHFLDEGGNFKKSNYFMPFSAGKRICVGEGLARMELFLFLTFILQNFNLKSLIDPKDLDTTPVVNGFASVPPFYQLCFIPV

[5] = growth suppression of PTEN-null colon cells, dose response, cell-based, HCT116 PTEN knockout (AID 1047); assay type: functional;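 also: HCT116 colon tumor cells with PTEN knocked out; cells exposed to compound for 60 hours before readout; potency for loss of cell viability measured by luminescence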
[6] = growth suppression of beta-catenin-knockout colon cells, dose response, cell-based, HCT116, human colon tumor (AID 1045); assay type: functional;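 also: HCT116 colon tumor cells with beta catenin knocked out; cells exposed to compound for 60 hours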
[7] = molecular target: T3, Short transient receptor potential channel 4 (Mus musculus, UniProt Q9QUQ5); assay: mouse TRPC4 channel activators, dose response, cell-based, HEK293 TRPC4/mu-opioid, Fluo-4 calcium (AID 434937); assay type: functional
T3 sequence (Q9QUQ5 whole entry): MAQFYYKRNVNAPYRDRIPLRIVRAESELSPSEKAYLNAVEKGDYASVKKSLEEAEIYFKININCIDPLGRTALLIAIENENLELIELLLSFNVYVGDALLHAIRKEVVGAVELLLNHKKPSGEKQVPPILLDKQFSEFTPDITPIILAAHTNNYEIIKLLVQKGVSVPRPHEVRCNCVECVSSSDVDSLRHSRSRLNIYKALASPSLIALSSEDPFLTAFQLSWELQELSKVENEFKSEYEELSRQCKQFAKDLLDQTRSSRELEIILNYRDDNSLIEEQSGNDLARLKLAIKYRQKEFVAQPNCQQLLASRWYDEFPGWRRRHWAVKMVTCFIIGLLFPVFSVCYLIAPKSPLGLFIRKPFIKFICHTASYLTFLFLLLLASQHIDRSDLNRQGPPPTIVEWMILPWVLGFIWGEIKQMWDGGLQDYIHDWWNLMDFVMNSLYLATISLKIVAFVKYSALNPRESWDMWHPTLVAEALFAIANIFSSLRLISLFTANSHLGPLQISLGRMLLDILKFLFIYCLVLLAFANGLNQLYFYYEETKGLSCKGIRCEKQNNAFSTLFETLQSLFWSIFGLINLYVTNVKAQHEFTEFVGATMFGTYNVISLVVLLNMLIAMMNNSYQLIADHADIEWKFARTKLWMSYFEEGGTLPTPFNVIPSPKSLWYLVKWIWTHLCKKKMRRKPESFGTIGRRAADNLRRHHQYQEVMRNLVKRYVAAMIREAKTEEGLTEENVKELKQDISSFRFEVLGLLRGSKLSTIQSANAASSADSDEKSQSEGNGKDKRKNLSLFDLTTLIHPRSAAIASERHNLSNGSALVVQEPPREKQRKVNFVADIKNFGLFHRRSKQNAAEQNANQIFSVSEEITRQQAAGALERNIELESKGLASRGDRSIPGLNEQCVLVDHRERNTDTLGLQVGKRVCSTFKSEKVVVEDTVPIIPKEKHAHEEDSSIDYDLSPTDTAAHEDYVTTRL

Cytochrome P450 1A2 = molecular target: T4, Cytochrome P450 1A2 (Homo sapiens, UniProt P05177);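 also: PubChem cytochrome P450 panel assay, CYP1A2 panel member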
T4 sequence (P05177 whole entry): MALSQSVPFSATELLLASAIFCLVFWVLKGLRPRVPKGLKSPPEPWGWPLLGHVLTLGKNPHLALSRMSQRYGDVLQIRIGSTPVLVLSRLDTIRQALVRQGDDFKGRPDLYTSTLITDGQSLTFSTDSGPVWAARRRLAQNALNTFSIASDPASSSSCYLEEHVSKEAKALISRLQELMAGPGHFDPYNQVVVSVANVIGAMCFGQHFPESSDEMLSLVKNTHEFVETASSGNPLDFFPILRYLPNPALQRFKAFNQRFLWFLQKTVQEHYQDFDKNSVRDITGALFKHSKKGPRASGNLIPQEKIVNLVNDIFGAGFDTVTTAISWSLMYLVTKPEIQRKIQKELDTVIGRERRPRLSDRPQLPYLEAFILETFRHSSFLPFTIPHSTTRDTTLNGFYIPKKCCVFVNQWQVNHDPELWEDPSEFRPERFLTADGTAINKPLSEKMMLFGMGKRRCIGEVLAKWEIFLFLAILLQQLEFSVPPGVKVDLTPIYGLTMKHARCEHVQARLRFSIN

Cytochrome P450 2D6 = Cytochrome P450 2D6 (Homo sapiens, UniProt P10635);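 also: CYP2D6 member of a cytochrome P450 panel assay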
Chain of Cytochrome P450 2D6 (P10635 whole entry, the tested form may be a part): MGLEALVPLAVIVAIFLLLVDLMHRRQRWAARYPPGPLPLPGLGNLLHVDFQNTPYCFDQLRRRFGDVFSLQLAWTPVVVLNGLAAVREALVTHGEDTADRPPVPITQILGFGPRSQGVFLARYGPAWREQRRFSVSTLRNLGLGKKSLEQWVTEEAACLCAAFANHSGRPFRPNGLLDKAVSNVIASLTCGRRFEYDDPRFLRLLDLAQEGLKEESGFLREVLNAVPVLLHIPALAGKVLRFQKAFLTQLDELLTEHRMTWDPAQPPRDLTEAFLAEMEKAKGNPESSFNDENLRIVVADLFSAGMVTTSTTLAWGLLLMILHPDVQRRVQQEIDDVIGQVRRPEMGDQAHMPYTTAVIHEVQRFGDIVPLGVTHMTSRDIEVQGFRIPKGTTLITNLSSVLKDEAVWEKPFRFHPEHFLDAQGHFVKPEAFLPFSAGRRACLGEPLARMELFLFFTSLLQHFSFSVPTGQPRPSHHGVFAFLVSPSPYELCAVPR

[8] = molecular target: T5, RNA-binding protein pos-1 (Caenorhabditis elegans, UniProt G5EF15); assay: inhibitors of POS-1/mex-3 RNA binding, dose response, biochemical, fluorescence polarization (AID 1964);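 also: purified POS-1 fused to maltose binding protein made in E. coli; potency of compounds blocking POS-1 binding to fluorescent RNA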
T5 sequence (G5EF15 whole entry): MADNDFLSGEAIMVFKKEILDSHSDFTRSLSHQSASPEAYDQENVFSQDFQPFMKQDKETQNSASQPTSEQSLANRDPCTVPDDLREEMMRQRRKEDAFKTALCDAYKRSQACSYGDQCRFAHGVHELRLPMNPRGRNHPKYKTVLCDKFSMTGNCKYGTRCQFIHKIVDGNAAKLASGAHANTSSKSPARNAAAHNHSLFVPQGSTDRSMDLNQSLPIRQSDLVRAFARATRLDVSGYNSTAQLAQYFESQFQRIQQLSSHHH

[9] = molecular target: T6, Zinc finger protein mex-5 (Caenorhabditis elegans, UniProt Q9XUB2); assay: MEX-5/TCR-2 RNA interaction inhibitors, dose response, biochemical, C. elegans, fluorescence polarization (AID 1960)
T6 sequence (Q9XUB2 whole entry): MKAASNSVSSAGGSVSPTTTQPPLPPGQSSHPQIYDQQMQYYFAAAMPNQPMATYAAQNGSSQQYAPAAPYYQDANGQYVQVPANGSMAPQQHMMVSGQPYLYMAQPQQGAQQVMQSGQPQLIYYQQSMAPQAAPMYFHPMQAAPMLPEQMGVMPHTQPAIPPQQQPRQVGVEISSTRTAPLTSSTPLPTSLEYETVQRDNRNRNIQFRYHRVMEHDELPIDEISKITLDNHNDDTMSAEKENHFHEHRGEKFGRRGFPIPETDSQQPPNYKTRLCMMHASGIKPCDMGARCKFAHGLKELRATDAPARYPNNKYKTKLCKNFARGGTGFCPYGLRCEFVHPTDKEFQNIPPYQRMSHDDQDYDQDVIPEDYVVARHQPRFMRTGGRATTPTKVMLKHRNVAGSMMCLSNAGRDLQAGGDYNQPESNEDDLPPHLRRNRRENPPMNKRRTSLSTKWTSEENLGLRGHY

[10] = A cytotoxicity screen of small molecule inhibitors of the PhoP region in Salmonella typhi identified in the primary screen. [Related pubchem assays: 1850, 1864, 1985 ]; assay type: functional

O=C(CSc1nc2ccccc2c(=O)n1C1CC1)NCc1ccccc1
IC50 [1]: 4.79 µM (active)

C=CCOc1ccc(/C=C2\C(=N)N3N=C(S(=O)(=O)CC)SC3=NC2=O)cc1OC
IC50 (Aminopeptidase N): 24.5 µM (active)

CCn1c(C)c(C)c2cc(C(=O)Nc3cccc(Cl)c3)ccc21
CC50 [2]: > 40 µM (active) | AC50 (Cytochrome P450 2C9): inconclusive | CC50 [3]: 30.4 µM (active) | AC50 [4]: 3.56 µM (active)

CCCc1cc(=O)oc2c(CN3CCN(C)CC3)c(O)c(Cl)cc12
IC50 (Aminopeptidase N): 42 µM (active)

CNc1oc(C)nc1S(=O)(=O)c1ccc(C)cc1
AC50 (Cytochrome P450 2C9): inconclusive | AC50 (Cytochrome P450 2C19): 31.6 µM (inconclusive)

Cc1ccccc1C(O)(Cc1ccccc1)C1CN2CCC1CC2 (stereo not given)
EC50 [5]: 14.8 µM (active) | EC50 [6]: 14.5 µM (active) | EC50 [7]: 5.31 µM (active)

CN1CCN(c2ncc3nc(-c4cn(C)c5ccccc45)c(=O)n(C[C@H]4CCCO4)c3n2)CC1
AC50 (Cytochrome P450 2C9): inconclusive | AC50 (Cytochrome P450 1A2): 6.31 µM (inconclusive)

Cn1c(CN2CCCCC2)nc2cc(NC(=O)c3ccccc3Cl)ccc21
IC50 [1]: 13.5 µM (active)

CS(=O)(=O)N1CCC(C(=O)c2cccc(Cl)c2)CC1
IC50 (Aminopeptidase N): 41.1 µM (active)

Cc1cccc(C)c1OCC(O)CN (stereo not given)
EC50 [7]: 4.22 µM (active)

COCCOC(=O)c1c(C)oc2ccc(NS(=O)(=O)c3cccs3)cc12
IC50 (Aminopeptidase N): 48.5 µM (active)

Cn1c(=O)c2nc(-c3ccccc3)oc2c2ccccc21
AC50 (Cytochrome P450 2D6): 28.2 µM (inconclusive) | AC50 (Cytochrome P450 2C9): inconclusive | AC50 (Cytochrome P450 2C19): 28.2 µM (inconclusive)

Cc1sc2nc(CSc3ccccc3)nc(NCCN(C)C)c2c1C
EC50 [7]: 2.99 µM (active)

Cc1csc(NC(=O)CCN2C(=O)c3ccccc3S2(=O)=O)n1
IC50 [1]: 13.8 µM (active)

O=C(CCCN1C(=O)c2cccc3cccc(c23)C1=O)N1CCc2ccccc2C1
AC50 (Cytochrome P450 2D6): 22.4 µM (inconclusive) | AC50 (Cytochrome P450 2C9): inconclusive

Cc1cccc(NC(=O)c2sc3nc(-c4ccccc4)cn3c2C)n1
EC50 [8]: > 300 µM (not active) | EC50 [9]: > 300 µM (not active) | EC50 [10]: > 50 µM (active)

CN(C)C(=O)c1ccc(-c2nc(NC3CCNCC3)c3ccccc3n2)cc1
AC50 (Cytochrome P450 2C9): inconclusive | AC50 (Cytochrome P450 1A2): 20 µM (inconclusive)

CN(CCc1ccccn1)C(=O)CC1C(=O)NCCN1Cc1cccc(F)c1 (stereo not given)
EC50 [7]: 2.37 µM (active)

COc1ccccc1CCC(=O)Nc1cc(S(=O)(=O)N2CCCCC2)ccc1N1CCN(C)CC1
EC50 [7]: 0.944 µM (active)

CCN1CCN(C(=O)c2ccc3nc(-c4ccccc4)c(-c4ccccc4)nc3c2)CC1
IC50 [1]: 15.6 µM (active)

CC(C)C(=O)Nc1cccc(NC(=O)c2ccc(Cl)cc2Cl)c1
IC50 [1]: 7.24 µM (active)

Nc1ccn([C@@H]2CC[C@H](CO)O2)c(=O)n1
AC50 (Cytochrome P450 2C9): inconclusive
